In publication PMC6213900, “Design, Synthesis, and Cytotoxic Analysis of Novel Hederagenin–Pyrazine Derivatives Based on Partial Least Squares Discriminant Analysis” (International Journal of Molecular Sciences, 2018):
Read-outs that look alike come from different tables or passages of the source.

Assays:
[1] = system: MCF-7 (human mammary cancer); assay: MTT cytotoxicity assay, MCF-7; assay type: cell-based; details: read-out: Half Maximal Inhibitory Concentration (IC50) MCF-7
Procedure: (§1) The cytotoxicity of hederagenin derivatives in vitro was evaluated on three tumor cell lines (A549: human non-small-cell lung cancer; MCF-7: human mammary cancer; HepG2: human hepatocellular carcinoma) using the 3-(4,5-dimethylthiazol-2-yl)-2,5-diphenyltetrazolium bromide (MTT) assay. In addition, their toxicity evaluations were tested on H9c2 (murine heart myoblast) and MDCK (Madin–Darby canine kidney) cells. MCF-7, A549, HepG2, H9c2, and MDCK cells were obtained from the Chinese Academy of Medical Sciences and Peking Union Medical College. All of the cell lines were maintained in Dulbecco’s modified Eagle medium (DMEM) supplemented with 1% (v/v) penicillin/streptomycin and 10% (v/v) fetal bovine serum (FBS; Thermo Technologies, New York, NY, USA) under a humidified atmosphere containing 5% CO2 at 37 °C. The stock solutions of He derivatives were dissolved in dimethyl sulfoxide (DMSO; Sigma, St. Louis, MO, USA) and added at various concentrations to the cell culture. Cellular morphologies were observed using an inverted fluorescence microscope (Olympus IX71, Tokyo, Japan), a plate reader (BIORAD 550 spectrophotometer, Bio-rad Life Science Development Ltd., Beijing, China), and a Canton 2 flow cytometer (BD, New York, NY, USA). The antitumor activity of these compounds were evaluated on MCF-7, A549, HepG2, MDCK, and H9c2 cell lines using the MTT assay. Cells at a density of 3 × 10^3 cells/well were plated in a 96-multiwell plate in DMEM containing 10% FBS for 24 h at 37 °C with 5% CO2. Then, cells were treated for 72 h with the required concentrations (3.125, 6.25, 12.5, 25, or 50 μM) of the compounds and reference drugs (He and DDP) dissolved with the vehicle DMSO. After that, the culture substrate was replaced with 200 μL of DMEM containing 20 μL of MTT solution at 5 mg/mL and incubated for 4 h. The supernatant was removed and the dissolved formazans precipitated with 120 μL of DMSO. Wells without drugs were used as blanks. A plate reader was used to determine the absorbance at 490 nm. The above steps were repeated three times. The IC50 values were defined as the concentration of the compound which gave 50% growth inhibition, and they were calculated using Graph Pad Prism 5. The inhibition rate was calculated using the following formula, where OD is the optical density:% inhibition = 1 − (Sample group OD/Control group OD) × 100%. (1)

[2] = system: A549 (human non-small-cell lung cancer); assay: MTT cytotoxicity assay, A549; assay type: cell-based; details: read-out: Half Maximal Inhibitory Concentration (IC50) A549
Procedure: as §1

[3] = system: H9c2 (murine heart myoblast); assay: MTT toxicity evaluation, H9c2; assay type: cell-based; details: non-tumor cells, read-out: Half Maximal Inhibitory Concentration (IC50) H9c2
Procedure: as §1

[4] = system: MDCK (Madin–Darby canine kidney) cells; assay: MTT toxicity evaluation, MDCK; assay type: cell-based; details: 72 h treatment, non-tumor cells, read-out: Half Maximal Inhibitory Concentration (IC50) MDCK
Procedure: as §1

[5] = system: HepG2 (human hepatocellular carcinoma); assay: MTT cytotoxicity assay, HepG2; assay type: cell-based; details: MTT, 72 h treatment, read-out: Half Maximal Inhibitory Concentration (IC50) HepG2
Procedure: as §1

[6] = Homo sapiens, MCF7, 72 h treatment
[7] = Homo sapiens, A549, 72 h treatment

For `Cc1ncc(C(=O)OCCOC(=O)[C@]23CCC(C)(C)CC2C2=CCC4[C@@]5(C)CC[C@H](O)[C@@](C)(CO)C5CC[C@@]4(C)[C@]2(C)CC3)nc1C` (stereo partly drawn) [Compound 12, 2-(((4aS,6aS,6bR,9R,10S,12aR)-10-Hydroxy-9-(hydroxymethyl)-2,2,6a,6b,9,12a-hexamethyl-1,2,3,4,4a,5,6,6a,6b,7,8,8a,9,10,11,12,12a,12b,13,14b-icosahydropicene-4a-carbonyl)oxy)ethyl-5,6-dimethylpyrazine-2-carboxylate], the IC50 [1, 6] was 17.3 ± 0.58 µM, the IC50 [2, 7] was 10.1 ± 2.47 µM and the IC50 ([3]; H9c2, 72 h treatment) was 13.2 ± 0.2 µM. For the same molecule, the IC50 ([4]; Canis lupus familiaris, MDCK) was 18.6 ± 0.71 µM, the melting point was 146.2 °C and the IC50 ([5]; Homo sapiens, HepG2) was 14.42 ± 0.03 µM.

With `Cc1cncc(C(=O)OC[C@@]2(C)C3CC[C@]4(C)C(CC=C5C6CC(C)(C)CC[C@]6(C(=O)OCCCCCl)CC[C@]54C)[C@@]3(C)CC[C@@H]2O)n1` (stereo partly drawn) [Compound 22, ((3S,4R,6aR,6bS,8aS,14bR)-8a-((4-Chlorobutoxy)carbonyl)-3-hydroxy-4,6a,6b,11,11,14b-hexamethyl-1,2,3,4,4a,5,6,6a,6b,7,8,8a,9,10,11,12,12a,14,14a,14b-icosahydropicen-4-yl)methyl 6-methylpyrazine-2-carboxylate] the IC50 [1, 6] was 20.5 ± 3.63 µM, the IC50 [2, 7] was 10.4 ± 0.43 µM and the IC50 ([3]; H9c2, 72 h treatment) was 16.26 ± 0.07 µM. The IC50 ([4]; Canis lupus familiaris, MDCK) was 16.3 ± 1.57 µM, the melting point was 126.9 °C and the IC50 ([5]; Homo sapiens, HepG2) was 7.15 ± 0.43 µM.

For `Cc1cnc(COC(=O)[C@]23CCC(C)(C)CC2C2=CCC4[C@@]5(C)CC[C@H](O)[C@@](C)(CO)C5CC[C@@]4(C)[C@]2(C)CC3)cn1` (stereo partly drawn) [Compound 3, (5-Methylpyrazin-2-yl)methyl(4aS,6aS,6bR,9R,10S,12aR)-10-hydroxy-9-(hydroxymethyl)-2,2,6a,6b,9,12a-hexamethyl-1,3,4,5,6,6a,6b,7,8,8a,9,10,11,12,12a,12b,13,14b-octadecahydropicene-4a(2H)-carboxylate], the IC50 [1, 6] was 16.8 ± 9.25 µM, the IC50 [2, 7] was 15 ± 0.35 µM and the IC50 ([3]; H9c2, 72 h treatment) was greater than 30 µM. The IC50 ([4]; Canis lupus familiaris, MDCK) was 18.4 ± 3.76 µM, the melting point was 170.3 °C and the IC50 ([5]; Homo sapiens, HepG2) was 18.9 ± 0.35 µM.

`CC1(C)CC[C@]2(C(=O)O)CC[C@]3(C)C(=CC[C@@H]4[C@@]5(C)CC[C@H](O)[C@@](C)(CO)[C@@H]5CC[C@]43C)[C@@H]2C1` [He, Hederagenin] showed an IC50 [1, 6] greater than 50 µM, an IC50 [2, 7] greater than 50 µM and an IC50 ([3]; H9c2, 72 h treatment) greater than 50 µM. It also gave an IC50 ([4]; Canis lupus familiaris, MDCK) greater than 50 µM and an IC50 ([5]; Homo sapiens, HepG2) greater than 50 µM.

Work on `Cc1cncc(C(=O)OCCCCOC(=O)[C@]23CCC(C)(C)CC2C2=CCC4[C@@]5(C)CC[C@H](O)[C@@](C)(CO)C5CC[C@@]4(C)[C@]2(C)CC3)n1` (stereo partly drawn) [Compound 15, 4-(((4aS,6aS,6bR,9R,10S,12aR)-10-Hydroxy-9-(hydroxymethyl)-2,2,6a,6b,9,12a-hexamethyl-1,2,3,4,4a,5,6,6a,6b,7,8,8a,9,10,11,12,12a,12b,13,14b-icosahydropicene-4a-carbonyl)oxy)butyl-6-methylpyrazine-2-carboxylate] yielded an IC50 [1, 6] of 19.8 ± 1.27 µM, an IC50 [2, 7] of 17.98 ± 0.04 µM and an IC50 ([3]; H9c2, 72 h treatment) of 17.6 ± 1.85 µM. The IC50 ([4]; Canis lupus familiaris, MDCK) was 17.1 ± 1.01 µM, the melting point was 128 °C and the IC50 ([5]; Homo sapiens, HepG2) was 6.71 ± 0.2 µM.

For `CC1(C)CC[C@]2(C(=O)OCCOC(=O)c3cnccn3)CC[C@]3(C)C(=CCC4[C@@]5(C)CC[C@H](O)[C@@](C)(CO)C5CC[C@]43C)C2C1` (stereo partly drawn) [Compound 8, 2-(((4aS,6aS,6bR,9R,10S,12aR)-10-Hydroxy-9-(hydroxymethyl)-2,2,6a,6b,9,12a-hexamethyl-1,2,3,4,4a,5,6,6a,6b,7,8,8a,9,10,11,12,12a,12b,13,14b-icosahydropicene-4a-carbonyl)oxy)ethylpyrazine-2-carboxylate], the IC50 [1, 6] was 25.35 ± 0.09 µM, the IC50 [2, 7] was 23.9 ± 0.31 µM and the IC50 ([3]; H9c2, 72 h treatment) was 21.7 ± 0.86 µM. The IC50 ([4]; Canis lupus familiaris, MDCK) was 20.1 ± 0.3 µM, the melting point was 154.7 °C and the IC50 ([5]; Homo sapiens, HepG2) was 17.4 ± 0.75 µM.

In the case of `N.N.[Cl][Pt][Cl]` [DDP, cisplatin, reference compound], the IC50 ([1]; 72 h treatment) is reported as 5.17 ± 0.28 µM, the IC50 ([2]; 72 h treatment) is reported as 3.85 ± 0.63 µM and the IC50 ([3]; 72 h treatment) is reported as 5.31 ± 0.26 µM. The IC50 [4] was 9.97 ± 1.12 µM and the IC50 [5] was 3.42 ± 0.68 µM.

`Cc1ncc(COC(=O)[C@]23CCC(C)(C)CC2C2=CCC4[C@@]5(C)CC[C@H](O)[C@@](C)(CO)C5CC[C@@]4(C)[C@]2(C)CC3)nc1C` (stereo partly drawn) [Compound 5, (5,6-Dimethylpyrazin-2-yl)methyl(4aS,6aS,6bR,9R,10S,12aR)-10-hydroxy-9-(hydroxymethyl)-2,2,6a,6b,9,12a-hexamethyl-1,3,4,5,6,6a,6b,7,8,8a,9,10,11,12,12a,12b,13,14b-octadecahydropicene-4a(2H)-carboxylate] showed an IC50 [1, 6] greater than 30 µM, an IC50 [2, 7] of 24.4 ± 0.37 µM and an IC50 ([3]; H9c2, 72 h treatment) of 28.5 ± 0.29 µM. For the same molecule, the IC50 ([4]; Canis lupus familiaris, MDCK) was 23.5 ± 0.67 µM, the melting point was greater than 200 °C and the IC50 ([5]; Homo sapiens, HepG2) was 24.94 ± 0.06 µM.

Work on `Cc1nccnc1COC(=O)[C@]12CCC(C)(C)CC1C1=CCC3[C@@]4(C)CC[C@H](O)[C@@](C)(CO)C4CC[C@@]3(C)[C@]1(C)CC2` (stereo partly drawn) [Compound 4, (3-Methylpyrazin-2-yl)methyl(4aS,6aS,6bR,9R,10S,12aR)-10-hydroxy-9-(hydroxymethyl)-2,2,6a,6b,9,12a-hexamethyl-1,3,4,5,6,6a,6b,7,8,8a,9,10,11,12,12a,12b,13,14b-octadecahydropicene-4a(2H)-carboxylate] yielded an IC50 [1, 6] of 17.3 ± 0.48 µM, an IC50 [2, 7] of 17.1 ± 1.06 µM and an IC50 ([3]; H9c2, 72 h treatment) of 20.4 ± 2.24 µM. For the same molecule, the IC50 ([4]; Canis lupus familiaris, MDCK) was 26.1 ± 1.02 µM, the melting point was 170.4 °C and the IC50 ([5]; Homo sapiens, HepG2) was 25.5 ± 1.4 µM.

For `CC1(C)CC[C@]2(C(=O)OCCCCCl)CC[C@]3(C)C(=CCC4[C@@]5(C)CC[C@H](O)[C@@](C)(COC(=O)c6cnccn6)C5CC[C@]43C)C2C1` (stereo partly drawn) [Compound 21, ((3S,4R,6aR,6bS,8aS,14bR)-8a-((4-Chlorobutoxy)carbonyl)-3-hydroxy-4,6a,6b,11,11,14b-hexamethyl-1,2,3,4,4a,5,6,6a,6b,7,8,8a,9,10,11,12,12a,14,14a,14b-icosahydropicen-4-yl)methyl-pyrazine-2-carboxylate], the IC50 [1, 6] was 24.98 ± 0.18 µM, the IC50 [2, 7] was 9.29 ± 0.99 µM and the IC50 ([3]; H9c2, 72 h treatment) was 16.68 ± 0.1 µM. For the same molecule, the IC50 ([4]; Canis lupus familiaris, MDCK) was 14.85 ± 0.06 µM, the melting point was 117.1 °C and the IC50 ([5]; Homo sapiens, HepG2) was 7.99 ± 0.12 µM.

Molecule `Cc1nccnc1C(=O)OCCCCOC(=O)[C@]12CCC(C)(C)CC1C1=CCC3[C@@]4(C)CC[C@H](O)[C@@](C)(CO)C4CC[C@@]3(C)[C@]1(C)CC2` (stereo partly drawn) [Compound 17, 4-(((4aS,6aS,6bR,9R,10S,12aR)-10-Hydroxy-9-(hydroxymethyl)-2,2,6a,6b,9,12a-hexamethyl-1,2,3,4,4a,5,6,6a,6b,7,8,8a,9,10,11,12,12a,12b,13,14b-icosahydropicene-4a-carbonyl)oxy)butyl-3-methylpyrazine-2-carboxylate] has an IC50 [1, 6] of 22.9 ± 0.66 µM, an IC50 [2, 7] of 19.6 ± 0.22 µM and an IC50 ([3]; H9c2, 72 h treatment) of 22.3 ± 0.3 µM. The IC50 ([4]; Canis lupus familiaris, MDCK) was 20.9 ± 3.03 µM, the melting point was 145.2 °C and the IC50 ([5]; Homo sapiens, HepG2) was 8.15 ± 0.22 µM.

`Cc1cnc(C(=O)OC[C@@]2(C)C3CC[C@]4(C)C(CC=C5C6CC(C)(C)CC[C@]6(C(=O)OCCCCCl)CC[C@]54C)[C@@]3(C)CC[C@@H]2O)cn1` (stereo partly drawn) [Compound 23, ((3S,4R,6aR,6bS,8aS,14bR)-8a-((4-Chlorobutoxy)carbonyl)-3-hydroxy-4,6a,6b,11,11,14b-hexamethyl-1,2,3,4,4a,5,6,6a,6b,7,8,8a,9,10,11,12,12a,14,14a,14b-icosahydropicen-4-yl)methyl 5-methylpyrazine-2-carboxylate] showed an IC50 [1, 6] of 21.3 ± 1.28 µM, an IC50 [2, 7] of 18.7 ± 0.32 µM and an IC50 ([3]; H9c2, 72 h treatment) of 23.4 ± 0.55 µM. The IC50 ([4]; Canis lupus familiaris, MDCK) was 19.5 ± 2.47 µM, the melting point was 175.8 °C and the IC50 ([5]; Homo sapiens, HepG2) was 7.17 ± 1.09 µM.

With `CC1(C)CC[C@]2(C(=O)OCCCCCl)CC[C@]3(C)C(=CCC4[C@@]5(C)CC[C@H](O)[C@@](C)(CO)C5CC[C@]43C)C2C1` (stereo partly drawn) [Compound 20] the IC50 [1, 6] was greater than 30 µM, the IC50 [2, 7] was greater than 30 µM and the IC50 ([3]; H9c2, 72 h treatment) was greater than 30 µM. It also gave an IC50 ([4]; Canis lupus familiaris, MDCK) greater than 30 µM and an IC50 ([5]; Homo sapiens, HepG2) greater than 30 µM.
